The subject of data set [1] is human gingival fibroblast (HGF-1). Nature of the data set: Cytotoxicity, CCK-8 assay. Format: cell-based. To be noted: HGF1. An excerpt: Figure S12. H&E staining of gingival, palatal and gastric tissues(Scale bar: 100
Supplementary Fig.13. The toxicity of pHly -1 NPs to human gingival fibroblast
(HGF-1) was assessment by CCK-8 assay. DMEM medium(10 % FBS) was used
for cell culture and DMEM m edium was used for drug preparation in toxicity tests.
The All of the data are represented as average±SD. Each experiment consists of 3 […]

A further data set concerns fresh mice erythrocytes. Format: cell-based, mouse. To be noted: 30 min, PBS pH 7.4. An excerpt:
Peptide and different pH of culture medium prepared. The pH of BHI medium was adjusted by HCl and NaOH. All peptides, including lycosin- I, pHly-1, s-pHly-1 were synthesized on a Rink amide-AM resin using the SPPS
(9- fluorenyl-methoxycarbonyl solid-phase peptide synthesis) method as reported previously1. Then peptides were cleaved from the resin using TFA/1,2- ethanedithiol/thioanisole/anisole (90/5/3/2 (v/v)), precipitated in cold diethyl ether and the collected precipitate was dried by air -drying . The prepared peptides were purified by reverse phase- HPLC (RP-HPLC) and their molecular weights were determined by MALDI-TOF MS.
Hemolytic assay. Approximately 4 % (in volume) of the mouse erythrocyte s were prepared by diluting fresh erythrocytes to 25-fold dilution with PBS buffer (pH 7.4).
The stock peptide solution ([…]) diluted by PBS solution to reach various concentrations (200 μL) was placed in a 1.5 mL sterile microfuge tube, followed by the addition of 200 μ L o f erythrocyte suspension. The mixture was incubated at 37 °C for 30 min. Then, the mixture was centrifuged at 3,500 rpm for 5 min to collect the supernatant. Aliquots (100 μL) of the supernatant were removed to 96-well plates, and the absorbance was detected at 450 nm using a microplate reader (Multiskan Spectrum, BioTek Inc., USA). Untreated erythrocyte suspension in an equal volume of PBS solution and 0.1% Triton X-100 were used as the negative control and positive […]
Isolation and culture of clinical S.mutans strains. Ethical approval of the study and the written consent/permission forms were obtained from Institutional Review Board (IRB) at Hunan Normal University prior to the study. For each child, written permission form was reviewed and signed by their legal guardians. Plaque -biofilm samples were collected from patients, including 16 Middle-aged and young patients and 4 children (age between 48 and 72 months) diagnosed with severe early childhood caries (S-ECC) in Changsha Stomatological Hospital. […]

No end group written: not given here. Bounds are passed on as bounds.

The term IC50 denotes the point on the concentration scale where inhibition reaches its midpoint. Lower therefore signals higher potency. `[H]/N=C(\N/C(=N/[H])NCCCCCCNC(=N)NC(=N)Nc1ccc(Cl)cc1)Nc1ccc(Cl)cc1` [CHX, chlorhexidine] displayed an IC50 in data set [1] of 4.9 µM. This lies in the single-digit micromolar range.

As usually defined, the HC50 is the concentration giving 50% haemolysis. Higher therefore signals less damage to red cells. Consider “KIWFHAMHIIAHFIAHQHLHQHL-NH2 [pHly-1 NPs]”, for which the hemolysis entry with fresh mice erythrocytes (500 μM) is listed as “about 20%”. Further, in the data set on fresh mice erythrocytes (37 °C), the concentration for 50% haemolysis (HC50) was more than 500 µM.

Values taken from paper PMC9254247, “Dual-sensitive antibacterial peptide nanoparticles prevent dental caries” (Theranostics, 2022).
